Patent US4609666A, “Aromatase inhibiting derivatives of α,α-bis(4-halophenyl)methyltetrazoles and triazoles” (Eli Lilly and Company, priority 1984, dated 1986)
Structures can show the parent of a compound that is named as a salt.

How the values were obtained:
[1] = molecular target: T1, aromatase (Rattus norvegicus, UniProt P22443); test: Aromatase inhibition in the rat ovarian microsome assay; format: biochemical; conditions: rat ovarian microsomes; substrate (androstenedione) concentration 0.1 μM
T1 construct: ovarian microsomes are obtained from rats treated with pregnant mares serum gonadotropin; from tissue; host or cells: ovary microsomes from rats treated with pregnant mares serum gonadotropin
T1 sequence (P22443 1-508): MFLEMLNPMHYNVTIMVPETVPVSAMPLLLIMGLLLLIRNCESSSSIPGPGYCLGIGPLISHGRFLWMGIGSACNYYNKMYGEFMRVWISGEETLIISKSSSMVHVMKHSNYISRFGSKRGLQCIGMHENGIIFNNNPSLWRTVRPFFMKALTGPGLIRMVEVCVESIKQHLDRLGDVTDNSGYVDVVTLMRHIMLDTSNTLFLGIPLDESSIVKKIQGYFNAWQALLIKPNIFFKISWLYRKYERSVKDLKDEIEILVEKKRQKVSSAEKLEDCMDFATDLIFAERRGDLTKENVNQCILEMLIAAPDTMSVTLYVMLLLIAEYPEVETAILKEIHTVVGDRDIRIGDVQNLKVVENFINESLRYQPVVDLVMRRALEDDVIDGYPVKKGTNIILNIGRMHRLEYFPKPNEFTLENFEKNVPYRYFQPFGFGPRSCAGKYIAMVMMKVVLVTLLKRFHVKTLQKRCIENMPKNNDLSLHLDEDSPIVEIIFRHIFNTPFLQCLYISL
Description: In this test system, ovarian microsomes are obtained from rats treated with pregnant mares serum gonadotropin. Test compounds are added to reaction vials containing 0.1 μM 4-androstene-3,17-dione, 100,000 dpm 1,2[^3 H]-androstenedione, the microsomes and a NADPH generating system. The concentrations of the inhibitors tested ranged between 0.005 and 10 μM.

[2] = test system: breast cancer; conditions: known aromatase inhibitors; cited from earlier work

Row | SMILES | EC50 [1] [nM] | effect in treatment of breast cancer [2]
1 | Clc1ccc(C(c2ccc(Cl)cc2)c2cc[nH]n2)cc1 [3-[Bis(4-chlorophenyl)methyl]-1H-pyrazole hydrochloride] | 170 | 
2 | Clc1ccc(C(c2ccccc2)c2cn[nH]c2)c(Cl)c1 (stereo not shown) [4-[(2,4-Dichlorophenyl)phenylmethyl]-1H-pyrazole] | 310 | 
3 | CCC1(c2ccc(N)cc2)CCC(=O)NC1=O (stereo not shown) [aminoglutethimide] |  | beneficial effect in treatment of breast cancer
4 | C[C@]12C=CC(=O)C=C1CC[C@@H]1[C@@H]2CC[C@]2(C)OC(=O)CC[C@@H]12 [testolactone] |  | beneficial effect in treatment of breast cancer
